Assay results taken from patent US8445466B2, “Stable aqueous compositions comprising amide-protected bioactive creatine species and uses thereof” (priority 2010, dated 2013).
One block for each compound: values may come before it.

Assays:
[1] = tested on: patients with idiopathic PD; conditions: 20 g/d for the first 5 days and 5 g/d thereafter, 24 sessions of resistance training; cited from earlier work
[2] = Conversion of creatine to creatinine in aqueous solutions; type: physicochemical; conditions: aqueous solution 0.250 mg/mL
[3] = tested on: highly trained adolescent (mean age 16) fin swimmers; conditions: five days of supplementation; cited from earlier work
[4] = tested on: young adult, vegetarian subjects; conditions: oral, 5 grams daily for six weeks, 45 subjects; cited from earlier work
[5] = tested on: patients with McArdle disease; conditions: cited from earlier work
[6] = tested on: small cohorts of athletes; conditions: oral; short term (5 days), medium term (9 weeks) and long term (up to 5 years); cited from earlier work
[7] = cited from earlier work
[8] = cited from earlier work; remark: listed apart in the source
[9] = tested on: person with myasthenia gravis; conditions: 5 grams daily with resistance training 3× per week for 15 weeks; cited from earlier work
[10] = tested on: Division IA college football players; conditions: up to 21-months; 15.75 g/day for five days, average 5 g/day thereafter; cited from earlier work
[11] = Stability of creatyl-L-glutamine formulations on storage in glass vials, HPLC assay of C-L-G and creatinine; type: physicochemical
Experimental: Specifically exemplified herein are three different formulations prepared using stable creatyl-L-glutamine (C-L-G) at a concentration of 1.00 mg/ml between pH 3.0 to 7.0. These formulations are described below.
The above described formulations were stored in glass vials at room temperature (25° C., 77° F.), at refrigerator temperature (4° C., 39° F.) and at elevated temperature (40° C., 104° F.) in vials. These samples were assayed by HPLC at periodic intervals for minimum of 60 days for creatyl-L-glutamine (C-L-G) and creatinine (degradation product of creatine) content. The % recovery results are presented below.

Compound: CN(CC(=O)O)C(=N)N.O [Creatine Monohydrate, creatine monohydrate]
biceps curl strength [1]: significantly improved
chest press strength [1]: significantly improved
COP Assay ([2]; pH 3.0, 25 C.°, 39 Days): 0.072 mg/mL
Creatinine ([2]; pH 3.0, 25 C.°, 39 Days): 0.154 mg/mL
COP Assay ([2]; pH 3.0, 25 C.°, 3 day): 0.219 mg/ml mg/mL
Creatinine ([2]; pH 3.0, 25 C.°, 3 day): 0.026 mg/mL
COP Assay ([2]; pH 3.0, 25 C.°, 10 days): 0.214 mg/mL
Creatinine ([2]; pH 3.0, 25 C.°, 10 days): 0.072 mg/ml mg/mL
COP Assay ([2]; pH 3.0, 25 C.°, 21 days): 0.151 mg/mL
Creatinine ([2]; pH 3.0, 25 C.°, 21 days): 0.111 mg/mL
COP Assay ([2]; pH 3.0, 25 C.°, INITIAL): 0.245 mg/mL
Creatinine ([2]; pH 3.0, 25 C.°, INITIAL): 0.000 mg/mL
COP Assay ([2]; pH 3.0, 40 C.°, 39 Days): 0.030 mg/mL
Creatinine ([2]; pH 3.0, 40 C.°, 39 Days): 0.186 mg/mL
COP Assay ([2]; pH 3.0, 40 C.°, 3 day): 0.091 mg/ml mg/mL
Creatinine ([2]; pH 3.0, 40 C.°, 3 day): 0.125 mg/mL
COP Assay ([2]; pH 3.0, 40 C.°, 10 days): 0.036 mg/mL
Creatinine ([2]; pH 3.0, 40 C.°, 10 days): 0.177 mg/ml mg/mL
COP Assay ([2]; pH 3.0, 40 C.°, 21 days): 0.029 mg/mL
Creatinine ([2]; pH 3.0, 40 C.°, 21 days): 0.186 mg/mL
COP Assay ([2]; pH 3.0, 40 C.°, INITIAL): 0.245 mg/mL
Creatinine ([2]; pH 3.0, 40 C.°, INITIAL): 0.000 mg/mL
COP Assay ([2]; pH 7.0, 40 C.°, 31 Days): 0.251 mg/mL
Creatinine ([2]; pH 7.0, 40 C.°, 31 Days): 0.068 mg/mL
COP Assay ([2]; pH 7.0, 40 C.°, 3 day): 0.242 mg/ml mg/mL
Creatinine ([2]; pH 7.0, 40 C.°, 3 day): 0.008 mg/mL
COP Assay ([2]; pH 7.0, 40 C.°, INITIAL): 0.257 mg/mL
Creatinine ([2]; pH 7.0, 40 C.°, INITIAL): 0.000 mg/mL

Compound: CN(CC(=O)O)C(=N)N [creatine, 2-(carbamimidoyl-methyl-amino) acetic acid]
dynamic strength [3]: enhances
performance in consecutive maximal swims [3]: improves
intelligence (Raven's Advanced Progressive Matrices) [4]: significantly improves
working memory (backward digit span) [4]: significantly improves
skeletal muscle function [5]: improves
adverse effects on renal function [6]: No adverse effects
average increase in muscle strength, greater than following placebo ingestion ([7]; 22 published studies, during resistance training): 8%
average increase in muscle strength following creatine supplementation during resistance training ([7]; 22 published studies, placebo 12%): 20%
average increase in weightlifting performance, greater than following placebo ingestion ([7]; during resistance training): 14%
average increase in weightlifting performance (maximal repetitions at a given percent of maximal strength) ([7]; during resistance training, placebo 12%): 26%
adverse health effect ([7]; short- or long-term creatine supplementations): no adverse health effect
degradation in the GI tract into creatinine, estimated rate ([8]; GI tract): ~0.1 g of a 5 g dose per hour
non-enzymatic conversion into creatinine ([8]; typical 70 kg individual): approximately 1.7 % daily
improved peak strength [9]: up to 37%
increase in body weight [9]: 7%
increase in fat free mass [9]: 4%
adverse effect in long-term supplementation [10]: No adverse effect

time composition is stable ([11]; elevated temperature (40° C., 104° F.)): more than 30 days
time aqueous solutions remain stable ([11]; refrigerator temperature (4° C., 39° F.)): more than 90 days
time aqueous solutions remain stable ([11]; room temperature (25° C., 77° F.)): more than 90 days
Compound: CN(CC(=O)N[C@@H](CCC(N)=O)C(=O)O)C(=N)N [creatyl-L-glutamine]

Compound: disodium creatine phosphate tetrahydrate
Creatine Monohydrate ([2]; pH 3.0, 25 C.°, 39 Days): 0.031 mg/mL
Creatinine ([2]; pH 3.0, 25 C.°, 39 Days): 0.069 mg/mL
Creatine Monohydrate ([2]; pH 3.0, 25 C.°, 3 day): 0.095 mg/mL
Creatinine ([2]; pH 3.0, 25 C.°, 3 day): 0.014 mg/mL
Creatine Monohydrate ([2]; pH 3.0, 25 C.°, 10 days): 0.092 mg/mL
Creatinine ([2]; pH 3.0, 25 C.°, 10 days): 0.034 mg/mL
Creatine Monohydrate ([2]; pH 3.0, 25 C.°, 21 days): 0.065 mg/mL
Creatinine ([2]; pH 3.0, 25 C.°, 21 days): 0.050 mg/ml mg/mL
Creatine Monohydrate ([2]; pH 3.0, 25 C.°, INITIAL): 0.000 mg/ml mg/mL
Creatinine ([2]; pH 3.0, 25 C.°, INITIAL): 0.000 mg/mL
Creatine Monohydrate ([2]; pH 3.0, 40 C.°, 39 Days): 0.012 mg/ml mg/mL
Creatinine ([2]; pH 3.0, 40 C.°, 39 Days): 0.081 mg/mL
Creatine Monohydrate ([2]; pH 3.0, 40 C.°, 3 day): 0.042 mg/mL
Creatinine ([2]; pH 3.0, 40 C.°, 3 day): 0.054 mg/mL
Creatine Monohydrate ([2]; pH 3.0, 40 C.°, 10 days): 0.017 mg/mL
Creatinine ([2]; pH 3.0, 40 C.°, 10 days): 0.086 mg/mL
Creatine Monohydrate ([2]; pH 3.0, 40 C.°, 21 days): 0.011 mg/mL
Creatinine ([2]; pH 3.0, 40 C.°, 21 days): 0.080 mg/ml mg/mL
Creatine Monohydrate ([2]; pH 3.0, 40 C.°, INITIAL): 0.004 mg/mL
Creatinine ([2]; pH 3.0, 40 C.°, INITIAL): 0.000 mg/mL
Creatine Monohydrate ([2]; pH 7.0, 25 C.°, 39 Days): 0.089 mg/mL
Creatinine ([2]; pH 7.0, 25 C.°, 39 Days): 0.000 mg/mL
Creatinine ([2]; pH 7.0, 25 C.°, 3 day): 0.000 mg/mL
Creatine Monohydrate ([2]; pH 7.0, 25 C.°, 10 days): 0.041 mg/mL
Creatinine ([2]; pH 7.0, 25 C.°, 10 days): 0.000 mg/mL
Creatine Monohydrate ([2]; pH 7.0, 25 C.°, 21 days): 0.069 mg/mL
Creatinine ([2]; pH 7.0, 25 C.°, 21 days): 0.000 mg/ml mg/mL
Creatine Monohydrate ([2]; pH 7.0, 25 C.°, INITIAL): 0.00 mg/mL
Creatinine ([2]; pH 7.0, 25 C.°, INITIAL): 0.000 mg/mL
Creatine Monohydrate ([2]; pH 7.0, 40 C.°, 39 Days): 0.108 mg/mL
Creatinine ([2]; pH 7.0, 40 C.°, 39 Days): 0.030 mg/mL
Creatine Monohydrate ([2]; pH 7.0, 40 C.°, 3 day): 0.042 mg/mL
Creatinine ([2]; pH 7.0, 40 C.°, 3 day): 0.004 mg/mL
Creatine Monohydrate ([2]; pH 7.0, 40 C.°, 10 days): 0.114 mg/mL
Creatinine ([2]; pH 7.0, 40 C.°, 10 days): 0.012 mg/mL
Creatine Monohydrate ([2]; pH 7.0, 40 C.°, 21 days): 0.122 mg/mL
Creatinine ([2]; pH 7.0, 40 C.°, 21 days): 0.020 mg/ml mg/mL
Creatine Monohydrate ([2]; pH 7.0, 40 C.°, INITIAL): 0.00 mg/mL
Creatinine ([2]; pH 7.0, 40 C.°, INITIAL): 0.000 mg/mL
